We go through eleven compounds from publication PMC10275482 (ACS Omega, 2023).

The structures appear in SMILES notation. Like-named read-outs stand apart in the source and are kept apart here.

The test system of series [1] is SARS-CoV-2. The settings on record: cited from earlier work; for EC50: read-out: EC50 in Vero cells.
For another series, the target named is SARS-Cov-2 PL^pro (Severe acute respiratory syndrome coronavirus 2, UniProt P0DTD1). Description: biochemical.
Series [2] has as its system SARS-CoV-2 (isolate USA WA1/2020). Description: microbe, parasite or virus in culture. In kind it is cell-based. Conditions: Severe acute respiratory syndrome coronavirus 2, Calu-3, 48 h, read-out: IC50 (infection).
Series [3] concerns SARS-CoV-2. The settings on record: Vero cells, cited from earlier work.
The next series can be described thus: in vitro. Conditions: human.
In series [4] the test system is SARS-CoV-2. The settings on record: cited from earlier work.
Series [5] deals with SARS-CoV-2. Conditions: read-out: A549-ACE2 IC50; A549-ACE2 cells; cited from earlier work.
The subject of a further series is PL^pro. The settings on record: read-out: PL^pro IC50; cited from earlier work.
Another series concerns the target SARS-Cov-2 M^pro (Severe acute respiratory syndrome coronavirus 2, UniProt P0DTD1). Description: biochemical.

As to `CC(C)(C)NC(=O)N[C@H](C(=O)N1C[C@H]2[C@@H]([C@H]1C(=O)NC(CC1CCC1)C(=O)C(N)=O)C2(C)C)C(C)(C)C` (some centres unmarked) [boceprevir], the 50% effective concentration (EC50) with SARS-CoV-2 [1] is 1.31 µM.
As for `COc1cc(Nc2c(C#N)cnc3cc(OCCCN4CCN(C)CC4)c(OC)cc23)c(Cl)cc1Cl` [bosutinib], the half-maximal inhibitory concentration (IC50) on SARS-Cov-2 PL^pro is 4.23 ± 0.28 µM; in series [2], 5.26 µM. For the same compound, the “cell toxicity in Calu-3 cells (in words)” value in the series with Calu-3 cells was “demonstrated cell toxicity”. In addition, in the series with SARS-CoV-2 [3], the “SI (anti-SARS-CoV-2 entry activity)” value is on record as 7.08. The EC50 in the series on SARS-CoV-2 [3] (read-out: anti-SARS-CoV-2 entry activity EC50) is 2.45 µM. This compound returned a CC50 in the series “in vitro” of 6.06 µM.
`C[N+](C)(C)CCOP(=O)(O)OP(=O)([O-])OC[C@H]1O[C@@H](n2ccc(N)nc2=O)[C@H](O)[C@@H]1O` [citicoline] came in with a concentration for half-maximal inhibition (IC50) against SARS-Cov-2 PL^pro of 1.35 ± 0.27 µM.
With `C[C@@H](Oc1cc(-c2cnn(C3CCNCC3)c2)cnc1N)c1c(Cl)ccc(F)c1Cl` [crizotinib], the IC50 stood at 3.81 ± 0.04 µM against SARS-Cov-2 PL^pro and 16.3 µM in [2]. For the same compound, in the series with Calu-3 cells, the “cell toxicity in Calu-3 cells (in words)” value is reported as “demonstrated cell toxicity”. In “in vitro”, this compound displayed a CC50 of 5.09 µM.
Regarding `COc1cc2ncnc(Nc3ccc(F)c(Cl)c3)c2cc1NC(=O)/C=C/CN1CCCCC1` [dacomitinib], the half-inhibitory concentration (IC50) was 3.33 ± 0.06 µM on SARS-Cov-2 PL^pro and 0.04 µM in the series with SARS-CoV-2 [4] (read-out: IC50 against SARS-CoV-2 in Calu-3 cells).
On to `OCCN(CCO)c1nc(N2CCCCC2)c2nc(N(CCO)CCO)nc(N3CCCCC3)c2n1` [dipyridamole], for which the 50% effective concentration (EC50) in the series with SARS-CoV-2 [1] is around 0.1 µM.
`CCCCCc1c2c(cc(O)c1C(=O)O)OC(=O)c1c(cc(OC)cc1C(=O)CCCC)O2` [lobaric acid]: the IC50 against SARS-Cov-2 PL^pro came out at 10 ± 1.11 µM.
Consider `C=CC(=O)Nc1cccc(Oc2nc(Nc3ccc(N4CCN(C)CC4)cc3)nc3ccsc23)c1` [olmutinib], for which the concentration for half-maximal inhibition (IC50) at SARS-Cov-2 PL^pro was determined as 0.54 ± 0.04 µM; in series [2] it was 9.76 µM. Further, the “cell toxicity in Calu-3 cells (in words)” value in the series on Calu-3 cells is reported as “demonstrated cell toxicity”. In addition, the CC50 in “in vitro” turned out to be 12.5 µM.
For the compound `COc1ccc2nc3cc(Cl)ccc3c(Nc3cc(CN4CCCC4)c(O)c(CN4CCCC4)c3)c2n1` [pyronaridine tetraphosphate], the 50% inhibitory concentration (IC50) is 0.23 µM in the series with SARS-CoV-2 [5] and 1.8 µM in the series with PL^pro.
Consider `O=C(c1ccc(OCCN2CCCCC2)cc1)c1c(-c2ccc(O)cc2)sc2cc(O)ccc12` [raloxifene], for which the IC50 was 3.28 ± 0.29 µM at SARS-Cov-2 PL^pro; 3.9 µM with SARS-CoV-2 [1] (read-out: IC50 against SARS-CoV-2 in Vero cells); 5.9 µM in the series with SARS-CoV-2 [1] (read-out: IC50 in Vero, Vero cells); 9 µM in the series on SARS-CoV-2 [4] (read-out: IC50 in Calu-3 cells); 42.8 ± 6.7 µM at SARS-Cov-2 M^pro. In addition, the “SI in Calu-3 cells” value with SARS-CoV-2 [4] was 2.7.
Regarding `CC1(C)CCC2=C(O1)c1ccccc1C(=O)C2=O` [β-lapachone], at SARS-Cov-2 PL^pro, the IC50 stood at 5.3 ± 0.29 µM.

For orientation: EC50 means the concentration that produces a half-maximal response. The IC50 is the concentration at which inhibition is half-maximal.
